Like-named read-outs stand apart in the source and are kept apart here.

Our source for the IC50 values is patent publication US11648254B2 (Kumquat Biosciences Inc., priority 2021, dated 2023).

In test [1] the test system is MIA PaCa-2 cells (K-Ras G12C). Kind of test: Ras-SOS cellular growth inhibition assay (CellTiter-Glo, 3D). In kind it is cell-based. As to the method:
MIA PaCa-2 (ATCC CRL-1420) and NCI-H1792 (ATCC CRL-5895) cell lines comprise a G12C mutation can be used to assess Ras cellular signaling in vitro, e.g., in response to a subject compound of the present disclosure. […] Cell culture medium (comprising, for example, MIA PaCa-2 cells) is prepared with DMEM/Ham's F12 (e.g., with stable Glutamine, 10% FCS, and 2.5% Horse Serum. NCI-H1792 culture medium is prepared with RPMI 1640 (e.g., with stable Glutamine) and 10% FCS. A CellTiter-Glo (CTG) luminescent based assay (Promega) is used to assess growth of the cells, as a measurement of the ability of the compounds herein to inhibit Ras signaling in the cells. The cells (e.g., 800-1200 per well) are seeded in their respective culture medium in standard tissue culture-treated ultra-low attachment surface 96-well format plates (Corning Costar #3474). The day after plating, cells are treated with a dilution series (e.g., a 9 point 3-fold dilution series) of the compounds herein (e.g., approximately 125 μl final volume per well). Cell viability can be monitored (e.g., approximately 5 days later) according to the manufacturer's recommended instructions, where the CellTiter-Glo reagent is added (e.g., approximately 65 μl), vigorously mixed, covered, and placed on a plate shaker (e.g., approximately for 20 min) to ensure sufficient cell lysis prior to assessment of luminescent signal. The IC50 values are determined using the four-parameter fit. The resulting IC50 value is a measurement of the ability of the compounds herein to reduce cell growth of Ras-driven cells as representative tumor cells.

A further test has as its target SOS1 (Homo sapiens (Human), UniProt Q07889). Kind of test: Ras-SOS interaction assay (HTRF). In kind it is biochemical.
Test [2] relates to NCI-H1975 cells (EGFR T790M L858R). Kind of test: EGFR-SOS cellular inhibition assay (CellTiter-Glo, 3D). In kind it is cell-based.
Where [3] appears, read: Homo sapiens, MIA PaCa-2, 120 h, MIA PaCa-2, 3D proliferation, about 5 days, read-out: Bio-Cell-Prolif-3D (MiaPaca2 IC50).
Where [4] appears, read: Homo sapiens, MIA PaCa-2, MIA PaCa-2, read-out: IC50 in inhibiting MIA PaCa-2 cell growth.
Where [5] appears, read: K-RasG13D utilized, read-out: IC50 inhibition of SOS.
[6] abbreviates: K-RasG13D, read-out: IC50 value against SOS1.
The mark [7] stands for this setting: Homo sapiens, 120 h, NCI-H1975, 3D proliferation, about 5 days, read-out: Bio-Cell-Prolif-3D (H1975 IC50).
The mark [8] stands for this setting: Homo sapiens, NCI-H1975, EGFR T790M L858R, read-out: IC50 in inhibiting growth of NCI-H1975 cell line.

Sequence of SOS1 (Q07889 564-1049): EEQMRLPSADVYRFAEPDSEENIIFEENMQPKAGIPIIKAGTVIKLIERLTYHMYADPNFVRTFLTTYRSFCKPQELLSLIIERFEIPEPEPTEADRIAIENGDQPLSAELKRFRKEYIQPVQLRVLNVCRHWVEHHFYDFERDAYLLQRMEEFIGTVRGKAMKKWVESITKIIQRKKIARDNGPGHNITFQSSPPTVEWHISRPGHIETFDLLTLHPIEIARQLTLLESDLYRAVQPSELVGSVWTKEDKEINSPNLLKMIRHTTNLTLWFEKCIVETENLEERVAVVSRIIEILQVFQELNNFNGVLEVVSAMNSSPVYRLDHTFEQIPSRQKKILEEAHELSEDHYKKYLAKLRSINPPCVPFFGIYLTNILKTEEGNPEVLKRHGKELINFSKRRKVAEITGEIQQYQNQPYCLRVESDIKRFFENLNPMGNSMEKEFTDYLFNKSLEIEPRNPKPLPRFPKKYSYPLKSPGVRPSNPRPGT

For `COc1nc2nc(C)nc(N[C@H](C)c3cccc(C(F)F)c3F)c2cc1[C@@H]1CCCN(C)C1` [Compound 134, N-((R)-1-(3-(difluoromethyl)-2-fluorophenyl)ethyl)-7-methoxy-2-methyl-6-((S)-1-methylpiperidin-3-yl)pyrido[2,3-d]pyrimidin-4-amine], the IC50 is at most 1000 nM in test [1] (setting [3]); under 500 nM in test [1] (setting [4]); under 100 nM on SOS1 (setting [5]); under 50 nM on SOS1 (setting [6]); at most 1000 nM in test [2] (setting [7]); under 500 nM in test [2] (setting [8]).

For `COc1nc2nc(C)nc(N[C@H](C)c3cccc(C(F)F)c3F)c2cc1[C@H]1CCCN(C)C1` [Compound 135, N-((R)-1-(3-(difluoromethyl)-2-fluorophenyl)ethyl)-7-methoxy-2-methyl-6-((R)-1-methylpiperidin-3-yl)pyrido[2,3-d] pyrimidin-4-amine], the IC50 is at most 1000 nM in test [1] (setting [3]), under 100 nM on SOS1 (setting [5]), under 50 nM on SOS1 (setting [6]) and at most 1000 nM in test [2] (setting [7]).

For the compound `CNc1nc2nc(C)nc(N[C@H](C)c3cccc(C(F)F)c3F)c2cc1C1CCS(=O)(=O)CC1` [Compound 136, (R)-4-(4-((1-(3-(difluoromethyl)-2-fluorophenyl)ethyl)amino)-2-methyl-7-(methylamino)pyrido[2,3-d]pyrimidin-6-yl)tetrahydro-2H-thiopyran 1,1-dioxide], the IC50 in test [1] (setting [3]) is at most 1000 nM; in test [1] (setting [4]), under 500 nM; on SOS1 (setting [5]) it was under 100 nM; at SOS1 (setting [6]) it was under 50 nM; in test [2] (setting [7]) it was at most 1000 nM; in test [2] (setting [8]) it was under 500 nM.

Regarding `Cc1nc(N[C@H](C)c2cccc(C(F)F)c2F)c2cc(C3CCS(=O)(=O)CC3)c(OCCO)nc2n1` [Compound 137, (R)-4-(4-((1-(3-(difluoromethyl)-2-fluorophenyl)ethyl)amino)-7-(2-hydroxyethoxy)-2-methylpyrido[2,3-d]pyrimidin-6-yl)tetrahydro-2H-thiopyran 1,1-dioxide], the IC50 in test [1] (setting [3]) is at most 1000 nM; in test [1] (setting [4]), under 500 nM; on SOS1 (setting [5]), under 100 nM; on SOS1 (setting [6]) it was under 50 nM; in test [2] (setting [7]), at most 1000 nM.

With `Cc1nc(N[C@H](C)c2cccc(C(F)F)c2F)c2cc(S(=O)(=O)C3CCN(C)CC3)c(C)nc2n1` [Compound 138, (R)-N-(1-(3-(difluoromethyl)-2-fluorophenyl)ethyl)-2,7-dimethyl-6-((1-methylpiperidin-4-yl)sulfonyl)pyrido[2,3-d]pyrimidin-4-amine], the IC50 in test [1] (setting [3]) is at most 1000 nM; in test [1] (setting [4]) it was under 500 nM; on SOS1 (setting [6]), under 50 nM; in test [2] (setting [7]), at most 1000 nM; in test [2] (setting [8]) it was under 500 nM.

As to `CNc1nc2nc(C)nc(N[C@H](C)c3cccc(C(F)F)c3F)c2cc1S(=O)(=O)C1CCN(C)CC1` [Compound 139, (R)-N4-(1-(3-(difluoromethyl)-2-fluorophenyl)ethyl)-N7,2-dimethyl-6-((1-methylpiperidin-4-yl)sulfonyl)pyrido[2,3-d]pyrimidine-4,7-diamine], the half-inhibitory concentration (IC50) in test [1] (setting [3]) is at most 1000 nM; in test [1] (setting [4]) it was under 500 nM; on SOS1 (setting [5]), under 100 nM; on SOS1 (setting [6]), under 50 nM; in test [2] (setting [7]) it was at most 1000 nM; in test [2] (setting [8]) it was under 500 nM.

Turning to `COc1nc2nc(C)nc(N[C@H](C)c3cccc(C(F)(F)F)c3C)c2cc1N1CCS(=O)(=O)CC1` [Compound 142, (R)-4-(7-methoxy-2-methyl-4-((1-(2-methyl-3-(trifluoromethyl)phenyl)ethyl)amino)pyrido[2,3-d]pyrimidin-6-yl)thiomorpholine 1,1-dioxide], the IC50 in test [1] (setting [3]) was at most 1000 nM; in test [1] (setting [4]), under 500 nM; at SOS1 (setting [5]), under 100 nM; on SOS1 (setting [6]) it was under 50 nM; in test [2] (setting [7]), at most 1000 nM; in test [2] (setting [8]) it was under 500 nM.

Take `Cc1nc(N[C@H](C)c2cccc(C(F)F)c2F)c2cc(C3CCS(=O)(=O)CC3)c(N(C)C)nc2n1` [Compound 143, (R)-4-(4-((1-(3-(difluoromethyl)-2-fluorophenyl)ethyl)amino)-7-(dimethylamino)-2-methylpyrido[2,3-d]pyrimidin-6-yl)tetrahydro-2H-thiopyran 1,1-dioxide]: the IC50 is at most 1000 nM in test [1] (setting [3]); under 500 nM in test [1] (setting [4]); under 100 nM on SOS1 (setting [5]); under 50 nM at SOS1 (setting [6]); at most 1000 nM in test [2] (setting [7]); under 500 nM in test [2] (setting [8]).

For the compound `Cc1nc(N[C@H](C)c2cccc(C(F)F)c2F)c2cc(C3CCS(=O)(=O)CC3)c(OCCN(C)C)nc2n1` [Compound 145, (R)-4-(4-((1-(3-(difluoromethyl)-2-fluorophenyl)-ethyl)amino)-7-(2-(dimethylamino)ethoxy)-2-methylpyrido[2,3-d]pyrimidin-6-yl)tetrahydro-2H-thiopyran 1,1-dioxide], the IC50 in test [1] (setting [3]) was at most 1000 nM; in test [1] (setting [4]) it was under 500 nM; on SOS1 (setting [5]), under 100 nM; at SOS1 (setting [6]), under 50 nM; in test [2] (setting [7]) it was at most 1000 nM; in test [2] (setting [8]), under 500 nM.

Take `COc1nc2nc(C)nc(N[C@H](C)c3cccc(CC(F)F)c3F)c2cc1C1CCS(=O)(=O)CC1` [Compound 147, (R)-4-(4-((1-(3-(2,2-difluoroethyl)-2-fluorophenyl)ethyl)amino)-7-methoxy-2-methylpyrido[2,3-d]pyrimidin-6-yl)tetrahydro-2H-thiopyran 1,1-dioxide]: the IC50 in test [1] (setting [3]) is at most 1000 nM; on SOS1 (setting [5]), under 100 nM; at SOS1 (setting [6]) it was under 50 nM; in test [2] (setting [7]) it was at most 1000 nM; in test [2] (setting [8]), under 500 nM.

On to `COc1nc2nc(C)nc(N[C@H](C)c3cccc(CC(F)F)c3F)c2cc1N1CCN(C)CC1` [Compound 149, (R)-N-(1-(3-(2,2-difluoroethyl)-2-fluorophenyl)ethyl)-7-methoxy-2-methyl-6-(4-methylpiperazin-1-yl)pyrido[2,3-d] pyrimidin-4-amine], for which the half-maximal inhibitory concentration (IC50) in test [1] (setting [3]) is at most 1000 nM; in test [1] (setting [4]), under 500 nM; on SOS1 (setting [5]), under 100 nM; at SOS1 (setting [6]), under 50 nM; in test [2] (setting [7]) it was at most 1000 nM; in test [2] (setting [8]) it was under 500 nM.

`COCCOc1nc2nc(C)nc(N[C@H](C)c3cccc(C(F)F)c3F)c2cc1C1(C#N)CC1` [Compound 151, (R)-1-(4-((1-(3-(difluoromethyl)-2-fluorophenyl)ethyl)amino)-7-(2-methoxyethoxy)-2-methylpyrido[2,3-d]pyrimidin-6-yl)cyclopropane-1-carbonitrile]: the IC50 in test [1] (setting [3]) is at most 1000 nM; at SOS1 (setting [6]) it was under 50 nM; in test [2] (setting [7]), at most 1000 nM; in test [2] (setting [8]) it was under 500 nM.

In the case of `COc1nc2ncnc(N[C@H](C)c3cccc(CC(F)F)c3F)c2cc1C1CCS(=O)(=O)CC1` [Compound 152, (R)-4-(4-((1-(3-(2,2-difluoroethyl)-2-fluorophenyl)ethyl)amino)-7-methoxypyrido[2,3-d]pyrimidin-6-yl)tetrahydro-2H-thiopyran 1,1-dioxide], the IC50 was at most 1000 nM in test [1] (setting [3]), under 100 nM at SOS1 (setting [5]), under 50 nM at SOS1 (setting [6]) and at most 1000 nM in test [2] (setting [7]).

With `COc1nc2nc(C)nc(N[C@H](C)c3cccc(C(F)F)c3F)c2cc1C1CCS(=N)(=O)CC1` (stereo partly drawn) [Compound 153, 4-(4-(((R)-1-(3-(difluoromethyl)-2-fluorophenyl)ethyl)amino)-7-methoxy-2-methylpyrido[2,3-d]pyrimidin-6-yl)-1-iminohexahydro-1λ6-thiopyran 1-oxide], the IC50 in test [1] (setting [3]) is at most 1000 nM; in test [1] (setting [4]) it was under 500 nM; at SOS1 (setting [5]) it was under 100 nM; on SOS1 (setting [6]), under 50 nM; in test [2] (setting [7]) it was at most 1000 nM; in test [2] (setting [8]), under 500 nM.

As to `COc1nc2nc(C)nc(N[C@H](C)c3cccc(C(F)F)c3F)c2cc1C1CCS(=N)(=O)CC1` (stereo partly drawn) [Compound 154, (R)-4-(4-((1-(3-(difluoromethyl)-2-fluorophenyl)ethyl)amino)-7-methoxy-2-methylpyrido[2,3-d]pyrimidin-6-yl)-1-iminohexahydro-1λ6-thiopyran 1-oxide], the IC50 is at most 1000 nM in test [1] (MIA PaCa-2, 3D proliferation, about 5 days, read-out: Bio-Cell-Prolif-3D (MiaPaca2 IC50)); under 500 nM in test [1] (MIA PaCa-2, read-out: IC50 in inhibiting MIA PaCa-2 cell growth); under 100 nM on SOS1 (setting [5]); under 50 nM on SOS1 (setting [6]); at most 1000 nM in test [2] (NCI-H1975, 3D proliferation, about 5 days, read-out: Bio-Cell-Prolif-3D (H1975 IC50)); under 500 nM in test [2] (NCI-H1975, EGFR T790M L858R, read-out: IC50 in inhibiting growth of NCI-H1975 cell line).
